According to patent publication US20100105864A1, “PROPHYLACTIC OR THERAPEUTIC AGENT FOR DIARRHEA” (priority 2007, published 2010):
Marks after values point to notes of the source that are not given here. Starred links: 1 amine or outer side, 2 acyl side, 3 side chain; linkers in the order of their positions; H or OH if unused. Non-standard residues stand in square brackets, D forms with d. Residues, ends and D or L forms follow the SMILES beside them. γGlu = O=C(O)[C@H](CCC(=O)[*:2])N[*:1]; Tle = CC(C)(C)[C@H](N)C(=O)O

What was measured:
[1] = system: rat large intestine loop; test: Fluid absorption in rat large intestine loop method (PGE2-stimulated); type: in vivo, rats; details: injected into loop 30 minutes after PGE2 i.p.; measured after 1 hour
Description: The cecum and large intestine were extirpated from the abdomen of each of male SD (IGS) rats under pentobarbital anesthesia, and the site 5 cm away from the area just under the cecum was ligated to form a large intestine loop Immediately after the loop had been formed, PGE2 (4 μg/ml/kg, SIGMA) was intraperitoneally administered, and after 30 minutes, a medicament, which had been dissolved in 2 ml of Tyrode's solution (NaCl: 136.9 mM, KCl: 2.7 mM, CaCl2.2H2O: 1.8 mM, MgCl2.6H2O: 1.04 mM, NaH2PO4.2H2O: 0.04 mM, NaH2PO4.2H2O: 0.04 mM, glucose: 5.55 mM, NaHCO3: 11.9 mM), was injected into the prepared loop (the medicament solution was adjusted so that the pH would be 6.5 to 7.5). As a control, Tyrode's solution free of any medicament (vehicle) was administered. After 1 hour, the loop weight, the loop weight after solution removal, and the loop area were measured to calculate a solution weight per unit area remaining in the loop.
The remaining solution amount per unit area was calculated with the following equation:
Remaining solution amount per unit area(g/cm^2)=(Loop weight−Loop weight after solution removal)/Loop area.
The fluid absorption was evaluated by calculating an inhibitory rate from the following equation:
Inhibitory rate(%)=100−(Remaining solution amount per unit area under drug administration−Remaining solution amount per unit area in base(average))/(Remaining solution amount per unit area under vehicle administration(average)−Remaining solution amount per unit area in base(average))×100.
(Base=case where no stimulation is given (no treatment with PGE2))

[2] = system: Balb/c mice; test: Anticancer agent (5-FU)-induced diarrhea model; type: in vivo
Description: To each of Balb/c mice, an anticancer agent was administered to induce diarrhea, and γ-Glu-Val-Gly (hereinafter, referred to as “γEVG”) was studied for its inhibitory effect on diarrhea. To each of 6-week-old Balb/c mice fed with a low protein nutrient diet (4% casein diet) for 1 week, 5-FU (1 mg/animal/day) was intraperitoneally administered for consecutive 3 days. The diarrhea developed around Day 5 after the third administration of the anticancer agent, and the diarrhea appeared in all cases on Day 7. The presence or absence of diarrhea was determined based on the presence or absence of the stool in the tail head area. As the statistical test, a chi-square (χ^2) test for the control group (presence or absence of diarrhea) was employed, and p<0.05 was regarded as significant.
Each administration of 0.01% γEVG was started in free water intake at the same time as the first administration of the anticancer agent, and continued until completion of the experiment.
To each of Balb/c mice, an anticancer agent was administered to induce diarrhea, and a calcium receptor activator (hereinafter, referred to as “CaSR agonist”) was studied for its inhibitory effect on diarrhea. To each of 6-week-old Balb/c mice fed with a low protein nutrient diet (4% casein diet) for 1 week, 5-FU (1 mg/animal/day) was intraperitoneally administered for consecutive 3 days. The diarrhea developed around Day 5 after the third administration of the anticancer agent, and the diarrhea appeared in all cases on Day 7. The presence or absence of diarrhea was determined based on the presence or absence of the stool in the tail head area. As the statistical test, a chi-square (χ^2) test for the control group (presence or absence of diarrhea) was employed, and p<0.05 was regarded as significant.
The administration of the CaSR agonist was started in free water intake at the same time as the administration of the low protein nutrient diet, and continued until completion of the experiment.

Compound | fluid absorption (inhibitory rate from remaining solution amount per unit area) [1] | mice that did not exhibit the diarrhea symptom ([2]; 0.05% administration group, free water intake from start of low protein diet, control all 9/9 with diarrhea) | Ratio of individuals that developed diarrhea ([2]; 0.5% in free water intake from start of low protein diet, control 9/9, p < 0.05 chi-square)
CC(C)(C)[C@H](NC(=O)CC[C@H](N)C(=O)O)C(=O)NCC(=O)O [γ-Glu-t-Leu-Gly] (γGlu-[Tle]-Gly-OH) | promoted fluid absorption | – | –
C[C@@H](NCCCc1cccc(C(F)(F)F)c1)c1cccc2ccccc12 [cinacalcet, (R)—N-(3-(3-(trifluoromethyl)phenyl)propyl)-1-(1-naphthyl)ethylamine] | promoted fluid absorption | 2 out of 5 | 3/5*
